# Measurements reported in PubChem BioAssay (NCI).
# Several values for one entry are separate records, joined by “and”; a condition that tells them apart may be missing. Equal values may be shown once.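 All cell lines were grown in 96-well plates and treated with compound for 48 hours. At the GI50, growth is halved. TGI marks complete inhibition of growth.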
# Legend:
# Assay in all cases: inhibition of tumour cell growth, NCI panel, 48 h
# [1] = system: OVCAR-3 ovarian
# [2] = system: SW-620 colon
# [3] = system: OVCAR-5 ovarian
# [4] = system: OVCAR-8 ovarian
# [5] = system: SK-MEL-2 melanoma
# [6] = system: HCT-116 colon
# [7] = system: HT29 colon
# [8] = system: HOP-92 NSCLC
# [9] = system: UO-31 renal
# [10] = system: NCI/ADR-RES ovarian
SMILES,GI50 [1],TGI [1],GI50 [2],TGI [2],GI50 [3],TGI [3],GI50 [4],TGI [4],GI50 [5],TGI [5],GI50 [6],TGI [6],GI50 [7],TGI [7],GI50 [8],TGI [8],GI50 [9],TGI [9],GI50 [10],TGI [10]
COc1cc2c(c(OC)c1OC)-c1c(c3ccc([N+](=O)[O-])cc3c(=O)n1CCCN=[N+]=[N-])C2=O,45.2 µM,> 100 µM,33.6 µM,> 100 µM,> 100 µM,> 100 µM,13.6 µM,68.8 µM,2.49 µM,22.9 µM,14.2 µM,38 µM,94 µM,> 100 µM,21.5 µM,80.2 µM,4.92 µM,72.5 µM,45.3 µM,> 100 µM
CC(CCC/C=C/CCCN(C)C(=N)N)CC(C)C1OC(=O)C(C)C(O)/C=C/C(C)C(O)C(C)C(O)C(C)C(O)CCCC(O)CC2(O)OC(CC(OC(=O)CC(=O)O)CC(O)CC(O)C(C)C(O)/C=C/C=C/C1C)CC(O)C2O (stereo not given),1.92 µM and 5.68 µg/mL,3.42 µM and 15.1 µg/mL,2.02 µM and 9.83 µg/mL,3.7 µM and 21.7 µg/mL,14.4 µM and 13.5 µg/mL,29.9 µM and 26.1 µg/mL,2.54 µM and 7.93 µg/mL,5.88 µM and 19.8 µg/mL,7.22 µM and 10.2 µg/mL,23 µM and 20.5 µg/mL,2.52 µM and 9.15 µg/mL,6.13 µM and 24.4 µg/mL,1.76 µM and 3 µg/mL,3.41 µM and 11.7 µg/mL,1.92 µM and 9.74 µg/mL,6.57 µM and 20.1 µg/mL,3.36 µM and 14.5 µg/mL,8.6 µM and 26.1 µg/mL,5.99 µM and 15.9 µg/mL,20.4 µM and 34.3 µg/mL
COc1ccc(/C=C2\CC(C)CC3C2=NN(C(C)=O)C3c2ccc(OC)c(OC)c2)cc1OC (stereo not given),18 µM,46 µM,26.1 µM,67.1 µM,17.5 µM,33.8 µM,23.5 µM,> 100 µM,15.4 µM,30 µM,13.7 µM,26.6 µM,22.4 µM,> 100 µM,13.8 µM,33.5 µM,13.3 µM,29.6 µM,12.8 µM,43 µM
Cc1nc2cc(NC(=O)CN3CCN(CCN4C(=O)c5cccc6cccc(c56)C4=O)CC3)ccc2s1,7.91 µM,20.7 µM,2.6 µM,24.3 µM,14.1 µM,> 100 µM,2.77 µM,19.4 µM,6.62 µM,24.1 µM,2.94 µM,14.7 µM,3.39 µM,19.6 µM,2.13 µM,9.05 µM,3.07 µM,> 100 µM,4.05 µM,29.5 µM
Cc1cc(N2CCOCC2)nc(N(CCNc2ccnc3cc(Cl)ccc23)Cc2cccs2)n1,,,1.92 µM,4.18 µM,2.19 µM,4.73 µM,1.96 µM,4.06 µM,1.99 µM,4.08 µM,,,,,0.22 µM,1.93 µM,1.39 µM,2.75 µM,3.45 µM,> 100 µM
COC(=O)[C@@H](C)C[C@H](Cc1ccccc1)NC(=O)c1cccc([C@@H](C[C@H](C(C)C)N(C)C(=O)[C@@H](NC(=O)[C@H]2CCCCN2C)C(C)C)OC(C)=O)n1,< 0.00167 µM,0.00268 µM,< 0.00167 µM,> 16.7 µM,0.00772 µM,> 16.7 µM,0.00243 µM,> 16.7 µM,,,< 0.00167 µM,> 6.68 µM,< 0.00167 µM,> 16.7 µM,< 0.00167 µM,0.114 µM,0.0127 µM,> 16.7 µM,0.152 µM,> 5.17 µM
Oc1ccc(-c2nc(-c3ccc4oc5ccc(-c6[nH]c(-c7ccc(O)cc7)nc6-c6ccccc6)cc5c4c3)c(-c3ccccc3)[nH]2)cc1,4.3 µM,15.2 µM,2.95 µM,10.7 µM,12.1 µM,25.4 µM,2.23 µM,5.32 µM,,,3.85 µM,> 100 µM,3.8 µM,11.3 µM,2.19 µM,6.53 µM,6.96 µM,22.8 µM,16 µM,> 100 µM
COc1ccc(C2CC(c3cccc(Nc4ccnc5cc(Cl)ccc45)c3)=NN2c2ccc(Cl)cc2)cc1 (stereo not given),11 µM,> 100 µM,0.533 µM,21.6 µM,15.6 µM,87 µM,5 µM,91 µM,11.5 µM,38.9 µM,2.27 µM,19.2 µM,,,10.8 µM,66.3 µM,1.87 µM,31.3 µM,9.51 µM,43.4 µM
CN(C)c1ccc(/C=C/C(=O)c2ccc(Nc3nc(Nc4ccc(F)cc4)nc(Nc4ccc(Cl)cc4)n3)cc2)cc1,5.48 µM,21.6 µM,6.79 µM,33.6 µM,20.3 µM,> 100 µM,1.99 µM,15.1 µM,4.6 µM,18.6 µM,3.3 µM,15.5 µM,5.18 µM,38.9 µM,,,3.22 µM,21.4 µM,3.56 µM,33.4 µM
Cc1cccc(NC(=O)c2sc3nc4c(cc3c2N)CCC4)c1C,0.308 µM,1.47 µM,0.359 µM,> 100 µM,0.531 µM,62.6 µM,0.427 µM,16.6 µM,0.31 µM,17.9 µM,0.381 µM,11.8 µM,,,0.449 µM,19 µM,0.615 µM,> 100 µM,0.279 µM,10.3 µM
COc1cc(OC)c(-c2oc3ccccc3c(=O)c2O)c(OC)c1,,,,> 100 µM,,> 100 µM,,> 100 µM,,,,> 100 µM,,> 100 µM,,> 100 µM,,> 100 µM,,5.05 µM
COc1cccc2c1C(=N)c1c(O)c3c(c(O)c1C2=O)C[C@@](O)(C(C)=O)C[C@@H]3OC1CC(N)C(O)C(C)O1 (stereo not given in full),,5.43 µM and 4.73 µM and 13 µM,,4.39 µM and 8.73 µM and 10.5 µM,,,,2.62 µM and 3.56 µM,,4.6 µM and 6.27 µM and 1.23 µM,,1.77 µM and 2.53 µM and 10.4 µM,,7.19 µM and 4.43 µM and 1.71 µM,,2.71 µM and 3.58 µM,,,0.466 µM,
